Data: BigSolDB 2.1

Nc1ccc(Sc2ccc([N+](=O)[O-])cc2)cc1
Details	solubility (mole fraction)
in chlorobenzene, 291.25 K	0.011
in chlorobenzene, 296.55 K	0.0133
in chlorobenzene, 301.75 K	0.0174
in chlorobenzene, 306.25 K	0.019
in chlorobenzene, 311.35 K	0.0225
in chlorobenzene, 316.65 K	0.0275
in chlorobenzene, 321.25 K	0.0314
in chloroform, 288.35 K	0.0218
in chloroform, 293.55 K	0.0264
in chloroform, 298.45 K	0.0307
in chloroform, 303.65 K	0.0361
in chloroform, 309.25 K	0.0433
in dichloromethane, 287.45 K	0.0244
in dichloromethane, 290.95 K	0.0275
in dichloromethane, 293.75 K	0.0299
in dichloromethane, 297.15 K	0.0339
in ethyl acetate, 290.45 K	0.0511
in ethyl acetate, 295.65 K	0.0575
in ethyl acetate, 300.45 K	0.063
in ethyl acetate, 305.65 K	0.0709
in ethyl acetate, 309.15 K	0.0766
in ethyl acetate, 313.65 K	0.0836
in ethyl acetate, 318.25 K	0.0911
in n-butanol, 292.55 K	0.0018
in n-butanol, 297.75 K	0.0024
in n-butanol, 302.65 K	0.0031
in n-butanol, 307.65 K	0.004
in n-butanol, 312.35 K	0.005
in n-butanol, 317.55 K	0.0061
in n-butanol, 322.25 K	0.0081
in toluene, 289.75 K	0.0183
in toluene, 294.55 K	0.0214
in toluene, 299.65 K	0.0241
in toluene, 304.75 K	0.0283
in toluene, 309.35 K	0.0337
in toluene, 314.55 K	0.0385
in toluene, 319.35 K	0.0448
in toluene, 324.65 K	0.0506
